# Experimental data reported in the supplement of paper PMC10307832.
# Legend:
# Assay in all cases: relative viability (nuclei count vs DMSO), 5 days (fraction); higher = more cells survive
# Selisistat + Foretinib = compound: C1CC(C2=C(C1)C3=C(N2)C=CC(=C3)Cl)C(=O)N [Selisistat] + COc1cc2c(Oc3ccc(NC(=O)C4(C(=O)Nc5ccc(F)cc5)CC4)cc3F)ccnc2cc1OCCCN1CCOCC1 [Foretinib] (partner 0.25 µM)
# In short: (§1)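 Five library-drug doses in √10 steps were combined with a fixed anchor-drug dose, or a single drug was given alone, by pin tool to lung cancer cell lines in 1536-well plates the day after seeding. Nuclei were stained and counted after 5 days. Relative viability is the nuclei count in treated wells over that in vehicle wells, taken as the median of duplicate plates.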
# Selisistat + Vorinostat = compound: C1CC(C2=C(C1)C3=C(N2)C=CC(=C3)Cl)C(=O)N [Selisistat] + O=C(CCCCCCC(=O)Nc1ccccc1)NO [Vorinostat] (partner 1 µM)
# In short: as §1
# Serdemetan + Trametinib = compound: c1ccc2c(CCNc3ccc(Nc4ccncc4)cc3)c[nH]c2c1 [Serdemetan] + CC(=O)Nc1cccc(-n2c(=O)n(C3CC3)c(=O)c3c(Nc4ccc(I)cc4F)n(C)c(=O)c(C)c32)c1 [Trametinib] (partner 0.02 µM)
# In short: as §1
# Serdemetan + Navitoclax = compound: c1ccc2c(CCNc3ccc(Nc4ccncc4)cc3)c[nH]c2c1 [Serdemetan] + CC1(C)CCC(c2ccc(Cl)cc2)=C(CN2CCN(c3ccc(C(=O)NS(=O)(=O)c4ccc(N[C@H](CCN5CCOCC5)CSc5ccccc5)c(S(=O)(=O)C(F)(F)F)c4)cc3)CC2)C1 [Navitoclax] (partner 0.5 µM)
# In short: as §1
Cell Line,relative viability (Selisistat + Foretinib; first compound 0.4 µM),relative viability (Selisistat + Foretinib; first compound 1.265 µM),relative viability (Selisistat + Foretinib; first compound 4 µM),relative viability (Selisistat + Foretinib; first compound 12.65 µM),relative viability (Selisistat + Foretinib; first compound 40 µM),relative viability (Selisistat + Vorinostat; first compound 0.4 µM),relative viability (Selisistat + Vorinostat; first compound 1.265 µM),relative viability (Selisistat + Vorinostat; first compound 4 µM),relative viability (Selisistat + Vorinostat; first compound 12.65 µM),relative viability (Selisistat + Vorinostat; first compound 40 µM),relative viability (Serdemetan + Trametinib; first compound 0.04 µM),relative viability (Serdemetan + Trametinib; first compound 0.1265 µM),relative viability (Serdemetan + Trametinib; first compound 0.4 µM),relative viability (Serdemetan + Trametinib; first compound 1.265 µM),relative viability (Serdemetan + Trametinib; first compound 4 µM),relative viability (Serdemetan + Navitoclax; first compound 0.04 µM),relative viability (Serdemetan + Navitoclax; first compound 0.1265 µM),relative viability (Serdemetan + Navitoclax; first compound 0.4 µM),relative viability (Serdemetan + Navitoclax; first compound 1.265 µM),relative viability (Serdemetan + Navitoclax; first compound 4 µM)
201T,1.06,1.03,0.997,0.986,1.11,1.07,0.98,0.85,1,0.995,0.769,0.687,0.736,0.653,0.631,1.18,1.22,1.2,1.14,1.13
A549,1.04,0.826,0.945,0.917,0.985,–,–,–,–,–,–,–,–,–,–,1.2,1.15,1.19,0.598,0.208
A-427,1.02,0.976,1.02,1.12,0.984,0.905,0.934,–,0.881,0.875,0.699,0.732,0.877,0.698,0.506,0.967,0.971,0.882,0.724,0.615
ABC-1,0.927,1.04,0.929,1.08,1.16,1.38,1.28,–,1.09,1.19,–,–,–,–,–,–,–,–,–,–
BEN,0.575,0.553,0.373,0.558,0.468,0.625,0.663,0.545,0.636,0.657,0.944,0.853,1.06,1.03,0.794,0.0749,0.0626,0.0845,0.0724,0.0676
CAL-12T,1.12,1,1,1.03,1.03,0.66,0.727,1.05,0.766,0.768,0.447,0.335,0.334,0.365,0.308,1.3,1.42,1.26,–,1.19
COR-L23,1.08,0.981,1.04,1.03,0.996,0.499,0.49,0.577,0.515,0.573,0.616,0.606,0.617,0.502,0.449,1.03,1,1.07,0.939,0.81
COR-L 105,0.984,1.15,–,1.1,1.14,0.892,0.846,0.876,0.964,1.21,0.435,0.482,0.366,0.487,0.491,0.708,0.871,0.596,0.771,0.722
Calu-6,0.932,0.812,0.814,0.853,0.84,–,–,–,–,–,–,–,–,–,–,0.973,0.869,0.682,0.687,0.493
ChaGo-K-1,0.927,0.896,0.922,0.857,0.843,0.72,0.728,0.73,0.729,0.842,0.875,0.805,0.602,0.266,0.293,–,1.15,0.925,0.681,0.899
EBC-1,0.111,0.0934,0.0874,0.0996,0.104,–,–,–,–,–,–,–,–,–,–,0.553,0.47,0.41,0.424,0.341
EKVX,0.808,0.83,0.595,0.866,0.867,0.708,0.757,–,0.903,0.655,0.45,0.396,–,–,0.268,0.862,0.888,0.973,0.791,0.91
EMC-BAC-2,1.03,0.97,0.962,1.11,0.842,0.487,0.515,0.0984,0.12,0.12,0.833,0.889,0.886,0.754,0.719,1.14,1.14,1.1,1.09,0.745
EPLC-272H,0.849,0.662,–,0.566,0.631,0.453,0.729,0.52,0.529,0.693,0.32,0.281,0.28,0.292,0.25,1.11,1.15,0.822,0.632,0.691
H3255,0.863,0.9,0.837,0.84,0.767,0.885,0.93,0.822,0.834,0.872,0.618,0.561,–,0.464,0.516,0.437,0.538,0.485,0.362,0.404
HARA,0.865,0.905,0.773,0.839,0.512,0.436,0.552,0.529,0.756,0.85,0.529,0.658,0.649,0.42,0.641,1.12,1.11,1.09,–,0.757
HCC-15,1.21,0.996,–,1.05,1.21,0.912,0.931,0.875,0.878,1.07,0.402,0.397,0.361,0.334,0.317,0.755,0.729,0.624,0.56,0.504
HCC-44,–,–,–,–,–,1.08,1.09,1.21,1.24,1.24,1.08,1.05,0.968,0.964,0.837,1.13,1.04,0.972,0.756,0.741
HCC-78,0.497,0.567,0.414,0.562,0.592,0.495,0.467,0.437,0.428,0.6,0.725,0.731,0.796,0.688,0.552,0.758,0.898,0.774,0.756,0.384
HCC-366,0.837,0.892,0.755,0.862,0.957,0.464,0.434,0.57,0.441,0.384,0.279,0.114,0.0617,0.0278,0.0741,1.03,0.981,0.522,0.0806,0.0474
HCC-827,1.17,1.09,1.02,0.9,1.08,0.851,0.829,0.862,0.862,0.837,0.543,0.603,–,0.359,0.318,1.02,0.941,–,0.787,0.753

Cell Line,relative viability (Selisistat + Foretinib; first compound 0.4 µM),relative viability (Selisistat + Foretinib; first compound 1.265 µM),relative viability (Selisistat + Foretinib; first compound 4 µM),relative viability (Selisistat + Foretinib; first compound 12.65 µM),relative viability (Selisistat + Foretinib; first compound 40 µM),relative viability (Selisistat + Vorinostat; first compound 0.4 µM),relative viability (Selisistat + Vorinostat; first compound 1.265 µM),relative viability (Selisistat + Vorinostat; first compound 4 µM),relative viability (Selisistat + Vorinostat; first compound 12.65 µM),relative viability (Selisistat + Vorinostat; first compound 40 µM),relative viability (Serdemetan + Trametinib; first compound 0.04 µM),relative viability (Serdemetan + Trametinib; first compound 0.1265 µM),relative viability (Serdemetan + Trametinib; first compound 0.4 µM),relative viability (Serdemetan + Trametinib; first compound 1.265 µM),relative viability (Serdemetan + Trametinib; first compound 4 µM),relative viability (Serdemetan + Navitoclax; first compound 0.04 µM),relative viability (Serdemetan + Navitoclax; first compound 0.1265 µM),relative viability (Serdemetan + Navitoclax; first compound 0.4 µM),relative viability (Serdemetan + Navitoclax; first compound 1.265 µM),relative viability (Serdemetan + Navitoclax; first compound 4 µM)
HOP-62,1.09,1.19,1.17,0.97,1.12,0.604,0.783,0.735,0.613,0.923,0.353,0.319,0.343,0.314,0.28,1.08,0.942,1.05,0.944,0.962
IA-LM,1.21,1.07,1.19,0.902,1.19,1.09,–,–,0.926,1.22,–,–,–,–,–,0.822,0.648,0.692,0.341,0.239
LC-2-ad,1.14,–,0.706,0.918,0.889,0.769,0.704,0.774,0.806,0.764,0.86,0.909,0.884,0.86,0.705,0.5,0.418,0.427,–,0.293
LCLC-97TM1,0.861,0.849,–,0.907,0.862,0.646,0.72,–,0.597,0.75,0.204,0.193,0.177,0.167,0.171,0.472,0.32,0.278,0.364,0.377
LCLC-103H,0.691,0.851,0.748,0.683,0.805,0.824,0.908,0.747,0.803,0.953,0.686,0.671,0.684,0.538,0.638,–,–,–,–,–
LK-2,0.955,1.04,1.45,0.955,1.01,0.396,0.308,0.376,0.339,0.365,0.697,0.79,0.809,0.752,0.757,0.918,0.889,1.2,0.953,0.746
LOU-NH91,1.01,0.938,0.872,0.928,0.896,0.962,0.919,0.824,0.835,0.959,0.782,0.798,–,–,0.839,0.696,0.74,–,0.534,0.581
LU99A,0.825,0.744,0.774,0.773,0.801,0.514,0.5,0.6,0.51,0.558,0.574,0.453,0.483,0.277,0.224,0.803,0.842,0.712,0.251,0.26
NCI-H358,0.808,0.763,0.553,0.727,0.833,0.766,0.636,0.686,0.778,0.8,0.135,0.144,0.12,0.0947,0.109,–,–,–,–,–
NCI-H522,–,–,–,–,–,0.908,0.868,0.835,0.919,1.13,0.678,0.698,0.87,0.702,0.612,–,–,–,–,–
NCI-H650,1.02,1.03,1.24,0.98,0.992,0.396,0.438,0.632,0.481,0.548,0.891,0.937,0.986,0.903,0.612,–,–,–,–,–
NCI-H661,1.06,1.04,0.977,0.936,0.876,0.824,0.77,0.829,0.727,0.66,0.551,0.603,0.621,0.512,0.517,–,–,–,–,–
NCI-H1299,1.16,1.13,1.15,1.07,1.11,–,–,–,–,–,–,–,–,–,–,1.02,1.03,1.02,0.942,0.835
NCI-H1563,1.05,0.91,0.941,0.9,0.809,–,–,–,–,–,–,–,–,–,–,–,–,–,–,–
NCI-H1623,0.963,0.782,0.614,0.918,0.846,–,–,–,–,–,–,–,–,–,–,–,–,–,–,–
NCI-H1648,–,–,–,–,–,0.289,0.446,–,0.596,0.39,–,0.534,0.393,0.317,0.296,–,–,–,–,–
NCI-H1703,0.338,0.336,0.365,0.356,0.313,–,–,–,–,–,–,–,–,–,–,1.05,1.24,1.17,0.958,0.951
NCI-H1792,–,–,–,–,–,–,–,–,–,–,0.401,0.458,0.304,0.248,0.142,0.655,0.587,0.551,0.355,0.476
NCI-H2342,0.997,0.986,0.896,1.09,1.07,0.749,0.646,0.626,0.899,0.897,0.818,0.84,1.12,0.789,0.669,–,–,–,–,–
SW 900,0.921,0.778,0.798,0.955,0.977,0.684,0.705,0.518,0.747,0.781,0.636,0.63,0.874,0.8,0.519,–,–,–,–,–
